The target in the assay is T1, STAT5b (Homo sapiens, UniProt P51692).
T1 sequence (P51692 1-787): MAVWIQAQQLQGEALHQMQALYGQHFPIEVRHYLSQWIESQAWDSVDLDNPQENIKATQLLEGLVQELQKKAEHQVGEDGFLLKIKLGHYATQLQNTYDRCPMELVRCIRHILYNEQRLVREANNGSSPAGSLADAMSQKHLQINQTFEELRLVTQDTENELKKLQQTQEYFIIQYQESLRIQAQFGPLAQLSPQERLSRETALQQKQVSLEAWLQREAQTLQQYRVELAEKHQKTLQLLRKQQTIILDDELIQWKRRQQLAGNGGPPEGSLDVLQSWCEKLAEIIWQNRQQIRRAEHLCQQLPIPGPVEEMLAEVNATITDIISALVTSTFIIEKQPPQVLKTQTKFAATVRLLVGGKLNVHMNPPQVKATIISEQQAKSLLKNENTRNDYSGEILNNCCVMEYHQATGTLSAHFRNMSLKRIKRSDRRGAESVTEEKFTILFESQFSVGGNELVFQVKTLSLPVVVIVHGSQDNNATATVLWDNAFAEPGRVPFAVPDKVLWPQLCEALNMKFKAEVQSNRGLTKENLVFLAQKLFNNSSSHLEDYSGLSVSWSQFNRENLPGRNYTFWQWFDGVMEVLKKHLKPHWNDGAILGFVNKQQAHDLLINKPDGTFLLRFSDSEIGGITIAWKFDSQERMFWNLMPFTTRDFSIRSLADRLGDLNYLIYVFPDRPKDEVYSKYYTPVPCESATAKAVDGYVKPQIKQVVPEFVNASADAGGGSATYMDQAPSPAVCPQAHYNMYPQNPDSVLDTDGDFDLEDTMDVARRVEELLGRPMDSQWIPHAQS
As to the kind of experiment: HTRF assay, STAT5b. The settings on record: STAT5b 80 nM, without reducing agent, 1 h. It is filed as binding. The text has this:
The azo dyes PPADS and iso‐PPADS have a deep red color in aqueous solution. […] In order to exclude this possibility, we established homogeneous time‐resolved fluorescence resonance energy transfer (HTRF) assays to confirm the degree of binding between STAT4, STAT5a, and STAT5b and the respective 5‐carboxyfluorescein‐labeled binding peptides used in the FP assay. In addition, an HTRF assay was established for STAT3, one of the STAT proteins targeted to a lesser extent in FP assays, as a specificity control (Figure 1B,C). The STAT protein constructs each contain a 6x‐His‐tag.^[ [15], [16], [17], [22] ^] A Tb^3+‐cryptate fused to an anti‐6x‐His antibody was chosen as the long‐lived fluorescent donor, while the carboxyfluorescein linked to the respective STAT‐binding peptides served as the acceptor (Figure 2A). Emission was measured with a time delay of 60 μs after excitation, allowing any initial compound fluorescence to decay beforehand. […]
Screening of chemical libraries comprising approximately 5000 known bioactive compounds in fluorescence polarization-based assays against phosphorylation-dependent protein-protein interaction domains, including STAT proteins, has been described.[1] […]
Fluorescence polarization assays
Competitive fluorescence polarization (FP) assays for STAT1,[2] […] Briefly, peptide binding to proteins was analyzed using the following carboxyfluorescein (CF) -labelled pepti des at a concentration of 10 nM: STAT1: 5-CF-GpYDKPHVL-OH, STAT3: 5-CF-GpYLPQTV -NH2, STAT4: 5-CF-GpYLPQNID-OH, STAT5a and STAT5b: 5-CF-GpYLVLDKW-OH, STAT6: 5- […]
CFGp[…]-OH. […] FP was measured using an Infinite F500 plate reader (Tecan) and measurements were converted into percent inhibition according to the binding curve equation. Curves were plotted and best fits calculated using OriginPro […]
Homogenous time-resolved fluorescence (HTRF) assays for STAT3, STAT4, STAT5a and STAT5b were carried out using Cisbio Monoclonal Antibody Anti-6His-Tb Gold as the fluorescence donor (Perkin Elmer) and the corresponding CF-labelled binding peptide as the acceptor. […] The average reading from 3 wells was obtained. […]
For orientation: TR-FRET usually uses a lanthanide donor and a delayed reading to cut background.

These results are taken from publication PMC12442245, “Activity Analysis of the P2X Receptor Antagonist PPADS against Signal Transducer and Activator of Transcription Proteins” (Chembiochem, 2025).

As usually defined, the IC50 is the concentration at which inhibition is half-maximal.

On to `Cc1nc(/N=N/c2ccc(S(=O)(=O)O)cc2S(=O)(=O)O)c(COP(=O)(O)O)c(C=O)c1O` [PPADS, pyridoxalphosphate‐6‐azophenyl‐2',4'‐disulfonic acid], for which the IC50 came to 1.22 ± 0.27 µM. In the case of `Cc1nc(/N=N/c2cc(S(=O)(=O)O)ccc2S(=O)(=O)O)c(COP(=O)(O)O)c(C=O)c1O` [iso‐PPADS] it was 0.8 ± 0.1 µM.
